{
  "source": "patent US6683077B2",
  "about": "“2-Amino-benzoxazinones for the treatment of viral infections” (G.D. Searle & Co., priority 1996, dated 2004)",
  "key": {"[1]": {"test_system": "human foreskin fibroblasts"}, "HCMV (strain AD169)": {"test_system": "HCMV (strain AD169)", "test": "HCMV ELISA antiviral assay (viral antigen)", "type": "cell-based, human cytomegalovirus", "conditions": "Human betaherpesvirus 5, Fibroblast; HCMV AD169 in human foreskin fibroblasts; value before the slash; unit inferred; read-out: Antiviral Activity Elisa, first value (EC50)", "description": "These complimentary assays tested the ability of a compound to inhibit the production of new virus and the toxicity of the compound to she host cells. It was important that both assays be performed simultaneously in order to compare the results directly since, toxicity may indirectly reduce viral yield.\nViral yield was estimated by measuring the amount of a viral antigen produced 4 days post infection with a monoclonal antibody to an abundant “immediate early” viral protein. An enzyme-linked (horseradish peroxidase) secondary antibody specific to the primary (mouse) antibody was urged to measure the amount of viral antigen. Test compounds were diluted to 2-times the desired final concentration in DMEM+5% FBS. One hundred microliters of this solution was placed in each well of a 96-well plate. This was performed once for the antiviral 96-well plate and again for a cytotoxicity plate. Two controls were also included for both plates; a no drug control and a no virus control. Ganciclovir was routinely tested in antiviral and cytotoxicity plates as a reference standard because it has known antiviral activity for HCMV. All cells were prepared by harvesting human foreskin fibroblasts, with trypsin and re-suspending at a concentration of 5×10^5 cells per ml in DMEM. Infected cells were prepared by infecting these with HCMV (strain AD169) at a multiplicity of infection=0.2. One hundred microliters of uninfected cells (5×10^4 cells) were added to the appropriate wells of the cytotoxicity plate. In a similar manner 100 μl of infected cells (5×10^4 cells) were added to the appropriate wells of the antiviral plate. Additionally, uninfected cells not treated with test compound were included as controls on the antiviral plate. Plates were incubated for 96 hours at 37° C. in 5% CO2 atmosphere and processed to measure the amount of viral antigen and toxicity.\nThe following was performed on the antiviral plate only. Media was removed and cells were fixed with 1:1 acetone:methanol for 15 minutes at −20° C. Fixative was removed and cells were washed once with PBS containing 0.05% Tween20. In order to block nonspecific binding of antibodies, each well was incubated with PBS containing 3% (w/v) bovine serum albumin (BSA) for 1 hour at 22° C. The blocking solution was removed and the cells were washed once with PBS containing 0.05% Tween20 before incubating with 1:100 dilution of primary antibody in PBS containing 3% BSA for 2 hours at 22° C. The primary antibody was a monoclonal antibody (mouse source) specific to the immediate early nuclear antigen of HCMV and was commercially available (Dupont). The 1° antibody solution was removed and the plate was rinsed 5 times with PBS containing 1% (v/v) Triton X-100 (PBST) before incubating with secondary antibody diluted 1:1000 in PBS containing 3% BSA for 2 hours at 22° C. The secondary antibody (goat source) recognized the murine-specific determinants of the 1° antibody and was covalently linked to horseradish peroxidase (Sigma). The plate was rinsed 5 times with PBST and once with deionized water before adding 100 μl TMB substrate solution and incubating 30 minutes at 22° C. The reaction was stopped by adding 100 μL of phosphoric acid and the OD at 450 nm recorded. TMB (3,3′,5,5′ tetramethylbenzidine) was the substrate for the horseradish peroxidase linked to the 2° antibody. It was made from a commercially available kit (Kirkegaard & Perry Laboratories, Inc.). Antiviral activity was calculated by comparing the amount of viral antigen produced in drug treated wells with that produced in wells absent of drug."}, "[2]": {"biological_target": "T1, Human leukocyte elastase (HLE) (Homo sapiens, UniProt P08246)", "T1 construct": "gift of R. Senior, Washington University", "T1 sequence (P08246 30-267)": "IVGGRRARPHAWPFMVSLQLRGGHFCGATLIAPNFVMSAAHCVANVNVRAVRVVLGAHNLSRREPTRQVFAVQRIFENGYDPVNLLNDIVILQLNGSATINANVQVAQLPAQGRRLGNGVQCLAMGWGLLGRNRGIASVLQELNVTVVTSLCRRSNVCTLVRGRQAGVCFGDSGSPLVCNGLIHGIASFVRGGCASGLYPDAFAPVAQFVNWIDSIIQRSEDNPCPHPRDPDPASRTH", "test": "Human leukocyte elastase assay", "type": "biochemical", "conditions": "@ 100 (concentration unit not given)", "procedure,_shortened": "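HLE in 0.2 M Tris, pH 8.0, was preincubated 30 minutes at ambient temperature with compound in DMSO. The reaction was started with methoxysuccinyl-Ala-Ala-Pro-Val-p-nitroanilide (2.5 mM added solution), and absorbance increase at 405 nm was monitored for 10 minutes.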"}, "[3]": {"biological_target": "T2, Bovine pancreas α-chymotrypsin (Bos taurus, UniProt P00766, DEL14-15/DEL147-148)", "T2 construct": "Bovine pancreas α-chymotrypsin (type II, Sigma); purchased Sigma type II; host or cells: bovine pancreas", "test": "Chymotrypsin assay", "type": "biochemical", "procedure": "The chymotrypsin assay was modified from the method of Delmar et al [Anal. Biochem., 99, 316-320 (1979)]. Bovine pancreas α-chymotrypsin (type II, Sigma) was dissolved in 0.001 N HCl at 1 mg/ml and further diluted 1/600 in assay buffer (0.1 M Tris, pH 7.8, containing 0.1 M CaCl2) before use. 20 μl of test compound in DMSO (or DMSO alone), 100 μl of assay buffer and 30 μl of enzyme were added to […], mixed and pre-incubated for 30 minutes at ambient temperature. Reaction was initiated by addition of 50 Al of 0.2 mM N-succinyl-Ala-Ala-Pro-Phe-p-nitroanilide (Sigma; 2 mM in DMSO diluted 1/10 in assay buffer before use). The increase in absorbance at 405 nm was monitored for 10 minutes with a Biotek EL340 plate reader."}, "[4]": {"biological_target": "HCMV protease (assemblin) (Human cytomegalovirus, UniProt P16753)", "sequence (P16753 1-256)": "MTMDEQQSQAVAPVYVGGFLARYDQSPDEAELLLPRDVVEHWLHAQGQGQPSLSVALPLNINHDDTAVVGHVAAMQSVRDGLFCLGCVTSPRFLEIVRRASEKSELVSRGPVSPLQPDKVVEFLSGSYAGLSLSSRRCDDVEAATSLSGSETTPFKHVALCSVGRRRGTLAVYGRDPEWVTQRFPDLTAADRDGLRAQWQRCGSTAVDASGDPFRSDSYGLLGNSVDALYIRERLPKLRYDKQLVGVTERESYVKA", "test": "Enzymatic assay for HCMV protease (assemblin) inhibitors", "type": "biochemical"}, "[5]": {"test_system": "HCMV engineered virus RC256", "test": "microbe, parasite or virus in culture", "type": "cell-based, human cytomegalovirus", "conditions": "Human betaherpesvirus 5, Fibroblast, read-out: Antiviral Activity RC256, first value (EC50)"}},
  "data": [
    {"compound": "3,5-Diiodo-N-(5-methyl-(3,5-diiodo)2-yl)-L-tyrosine, methyl ester [Example 1q]", "values": [
      {"measurement": "Antiviral Activity RC256, second value (cytotoxicity)", "setting": "[1]", "value": 70}
    ]},
    {"compound": "COC(=O)[C@H](Cc1cscn1)Nc1nc2ccc(NC(=O)OC(C)(C)C)c(C)c2c(=O)o1", "note": "[Example 6e, N-[6-[[(1,1-Dimethylethoxy)carbonyl]amino]-5-methyl-4-oxo-4H-3,1-benzoxazin-2-yl]-L-thiazol-4-yl-alanine, methyl ester]", "values": [
      {"measurement": "EC50", "setting": "HCMV (strain AD169)", "value": 58, "unit": "µM"}
    ]},
    {"compound": "Cc1cccc2nc(N[C@@H](C)c3ccccc3)oc(=O)c12", "note": "[Example 3b, 5-Methyl-2-[[(1S)-1-phenylethyl]amino]-4H-3,1-benzoxazin-4-one]", "values": [
      {"measurement": "EC50", "setting": "HCMV (strain AD169)", "value": 27, "unit": "µM"}
    ]},
    {"compound": "Cc1c(NC(=O)OC(C)(C)C)ccc2nc(N[C@@H](C)C(=O)N3CCCC3)oc(=O)c12", "note": "[Example 6g, N-[6-[[(1,1-Dimethylethoxy)carbonyl]amino]-5-methyl-4-oxo-4H-3,1-benzoxazin-2-yl]-L-alanine, pyrrolidineamiae]", "values": [
      {"measurement": "EC50", "setting": "HCMV (strain AD169)", "value": 100, "unit": "µM"}
    ]},
    {"compound": "Cc1c(NC(=O)OC(C)(C)C)ccc2nc(N[C@@H](C)C(=O)N(C)Cc3ccccc3)oc(=O)c12", "note": "[Example 6aa, N-[6-[[(1,1-Dimethylethoxy)carbonyl]amino]-5-methyl-4-oxo-4H-3,1-benzoxazin-2-yl]-L-alanine, N-methyl-N-phenylmethylamide]", "values": [
      {"measurement": "EC50", "setting": "HCMV (strain AD169)", "value": 75, "unit": "µM"}
    ]},
    {"compound": "COCC(=O)Nc1ccc2nc(N[C@@H](Cc3ccccc3)C(=O)OC)oc(=O)c2c1C", "note": "[Example 11c, N-[6-[[(Methoxymethyl)carbonyl]amino]-5-methyl-4-oxo-4H-3,1-benzoxazin-2-yl]-L-phenylalanine, methyl ester]", "values": [
      {"measurement": "EC50", "setting": "HCMV (strain AD169)", "value": 77, "unit": "µM"},
      {"measurement": "HLE, % @ concentration", "setting": "[2]", "value": 83, "unit": "% @ 100"}
    ]},
    {"compound": "1,1-Dimethylethyl[2-[[1S-[(4-methoxyphenyl)methyl]-2-oxo-2-[[2-(2-pyridinyl)ethyl]amino]ethyl]amino]-5-methyl-4-oxo-4H-3,1-benzoxazin-6-yl]carbamate [Example 6hh]", "values": [
      {"measurement": "Antiviral Activity RC256, second value (cytotoxicity)", "setting": "[1]", "value": 60},
      {"measurement": "Chymotrypsin, % @ concentration", "setting": "[3]; @ 10 (concentration unit not given)", "value": 21, "unit": "% @ 10"}
    ]},
    {"compound": "Cc1c(NC(=O)CN(C)C)ccc2nc(N[C@@H](C)c3ccccc3)oc(=O)c12", "note": "[Example 11m, 5-Methyl-6-[[(dimethylaminomethyl)carbonyl]amino]-2-[[(1S)-phenylethyl]amino]-4H-3,1-benzoxazin-4-one]", "values": [
      {"measurement": "Assemblin Protease, % @ concentration", "setting": "[4]; @ 1 (concentration unit not given)", "value": 67, "unit": "% @ 1.0"},
      {"measurement": "EC50", "setting": "HCMV (strain AD169)", "value": 88, "unit": "µM"},
      {"measurement": "HLE, % @ concentration", "setting": "[2]", "value": 37, "unit": "% @ 100"}
    ]},
    {"compound": "COc1ccc(C[C@H](Nc2nc3ccc(NC(=O)Oc4ccccc4)c(C)c3c(=O)o2)C(=O)N(C)Cc2ccccc2)cc1", "note": "[Example 11q, Phenyl[2-[[1S-[(4-methoxyphenyl)methyl]-2-[methyl(phenylmethyl)amino]-2-oxcethyl]amino]-5-methyl-4H-3,1-benzoxazin-6-yl]carbamate]", "values": [
      {"measurement": "IC50", "setting": "[4]", "value": 600, "unit": "nM"},
      {"measurement": "EC50", "setting": "[5]", "value": 18, "unit": "µM"},
      {"measurement": "IC50", "setting": "[3]", "value": 2400, "unit": "nM"}
    ]}
  ]
}
